{"source": "patent US12227535B2", "about": "“Triterpene saponins, methods of synthesis and uses thereof” (SLOAN KETTERING INSTITUTE FOR CANCER RESEARCH, priority 2008, dated 2025)", "key": {"GD3 ganglioside": {"tested_on": "GD3 ganglioside", "experiment": "Anti-GD3 antibody ELISA after vaccination of mice with GD3-KLH conjugate plus QS-21 adjuvants (Example 4)", "assay_type": "in vivo, mice (C57BL/6J, female)", "settings": "after 3 weekly vaccinations with GD3-KLH; adjuvant doses 10 and 20 μg; compared with GD3-KLH alone", "description": "Using similar protocols, the immuno-potentiating properties of the synthetic adjuvants SQS-21-Api and SQS-21-Xyl were evaluated in mice (C57BL/6J, female, six weeks of age). […]\nGroups of five mice were immunized with the melanoma antigen GD3 ganglioside conjugated to KLH (GD3-KLH) at a 10 μg antigen dose per vaccination. […] Immunopotentiation was assessed by testing for the presence of antibody against GD3 and KLH by ELISA, and against a tumor cell-line SK-MEL-28, expressing GD3 antigen, by FACS.\nThe antibody response after vaccination with GD3-KLH conjugate with or without adjuvant was determined with an ELISA assay using either GD3 ganglioside or KLH protein as target. […] After the third vaccination, no IgG antibodies against GD3 were detected; however, after the fourth immunization IgM and IgG antibody titers were induced in most mice. […]"}, "[1]": {"experiment": "Toxicity: loss of weight after each injection", "assay_type": "in vivo, mice (C57BL/6J, female)", "settings": "monitored 0 h, 24 h, 48 h, 72 h after each injection; GD3-KLH 10 μg; adjuvant 20 μg; 4-week duration", "description": "As a measure of toxicity, loss of weight was monitored at 0 h, 24 h, 48 h and 72 h after each injection. […] As the negative control, vaccinations employing GD3-KLH only (no adjuvant) led to no appreciable weight loss after each injection."}, "[2]": {"settings": "in vivo; cited from earlier work"}}}
{"compound": "CC[C@H](C)[C@H](C[C@H](O)CC(=O)O[C@H]1C(C)O[C@@H](OC(=O)[C@]23CCC(C)(C)CC2C2=CCC4C5(C)CC[C@H](O[C@@H]6OC(C(=O)O)[C@@H](O)[C@H](O[C@@H]7OC[C@@H](O)[C@H](O)C7O)C6O[C@@H]6OC(CO)[C@H](O)[C@H](O)C6O)[C@](C)(C=O)[C@@H]5CC[C@]4(C)[C@]2(C)CC3O)C(O[C@@H]2OC(C)[C@H](O[C@@H]3OC[C@@H](O)C(O[C@@H]4OCC(O)(CO)[C@@H]4O)C3O)C(O)C2O)C1O)OC(=O)C[C@@H](O)C[C@H](O[C@@H]1O[C@@H](CO)C(O)C1O)[C@@H](C)CC", "note": "(some centres unmarked) [SQS-21-Api, QS-21-Api]", "values": [{"measurement": "IgM antibody response against GD3 (antibody titers)", "setting": "GD3 ganglioside", "result": "significantly higher than the group with GD3-KLH alone"}, {"measurement": "weight loss after each injection", "setting": "[1]", "result": "very similar"}]}
{"compound": "CC[C@H](C)[C@H](C[C@H](O)CC(=O)O[C@H]1C(C)O[C@@H](OC(=O)[C@]23CCC(C)(C)CC2C2=CCC4C5(C)CC[C@H](O[C@@H]6OC(C(=O)O)[C@@H](O)[C@H](O[C@@H]7OC[C@@H](O)[C@H](O)C7O)C6O[C@@H]6OC(CO)[C@H](O)[C@H](O)C6O)[C@](C)(C=O)[C@@H]5CC[C@]4(C)[C@]2(C)CC3O)C(O[C@@H]2OC(C)[C@H](O[C@@H]3OC[C@@H](O)C(O[C@@H]4OC[C@@H](O)C(O)C4O)C3O)C(O)C2O)C1O)OC(=O)C[C@@H](O)C[C@H](O[C@@H]1O[C@@H](CO)C(O)C1O)[C@@H](C)CC", "note": "(some centres unmarked) [SQS-21-Xyl, QS-21-Xyl]", "values": [{"measurement": "IgM antibody response against GD3 (antibody titers)", "setting": "GD3 ganglioside", "result": "significantly higher than the group with GD3-KLH alone"}, {"measurement": "weight loss after each injection", "setting": "[1]", "result": "very similar"}]}
{"compound": "QS-21", "values": [{"measurement": "maximum dose", "setting": "[2]", "result": "≤ 50", "unit": "µg"}]}
